Source: the supplement of paper PMC10307832

Assays:
Assay in all cases: relative viability (nuclei count vs DMSO), 5 days (fraction); higher = more cells survive
[1] = system: SW 1573
In short: (§1)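 For relative viability, nuclei counts in treated wells were divided by those in vehicle wells. Lung cancer cell lines had been pin-tool dosed in 1536-well plates the day after seeding and cultured for 5 days, then fixed and stained in one step (final 0.05% Triton X-100, 1% formaldehyde, 1 ug/ml Hoechst) and imaged at 4×. Doses were one drug alone or a fixed anchor-drug dose plus five library-drug doses (not always all listed) in √10 steps, and values are duplicate-plate medians.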

[2] = system: NCI-H2126
In short: as §1

[3] = system: NCI-H647
In short: as §1

[4] = system: NCI-H2085
In short: as §1

[5] = system: NCI-H1734
In short: as §1

[6] = system: EMC-BAC-2
In short: as §1

[7] = system: PC-14
In short: as §1

[8] = system: NCI-H2023
In short: as §1

[9] = system: LXF-289
In short: as §1

[10] = system: NCI-H1915
In short: as §1

[11] = system: NCI-H1563
In short: as §1

[12] = system: SK-LU-1
In short: as §1

[13] = system: NCI-H661
In short: as §1

[14] = system: H3255
In short: as §1

[15] = system: NCI-H1993
In short: as §1

[16] = system: EPLC-272H
In short: as §1

[17] = system: NCI-H2347
In short: as §1

[18] = system: HOP-62
In short: as §1

[19] = system: NCI-H727
In short: as §1

[20] = system: NCI-H322M
In short: as §1

[21] = system: LCLC-97TM1
In short: as §1

[22] = system: NCI-H2009
In short: as §1

Compound: O=c1cc(N2CCOCC2)oc2c(-c3cccc4c3sc3ccccc34)cccc12 + N=C(N)NC(=N)NCCc1ccccc1 [Phenformin] (partner 250 µM)
- relative viability ([1]; first compound 0.01 µM): 0.451
- relative viability ([1]; first compound 0.03162 µM): 0.395
- relative viability ([1]; first compound 0.1 µM): 0.426
- relative viability ([1]; first compound 0.3162 µM): 0.326
- relative viability ([1]; first compound 1 µM): 0.343
- relative viability ([2]; first compound 0.01 µM): 0.513
- relative viability ([2]; first compound 0.03162 µM): 0.547
- relative viability ([2]; first compound 0.1 µM): 0.53
- relative viability ([2]; first compound 0.3162 µM): 0.554
- relative viability ([2]; first compound 1 µM): 0.515
- relative viability ([3]; first compound 0.01 µM): 0.547
- relative viability ([3]; first compound 0.03162 µM): 0.643
- relative viability ([3]; first compound 0.1 µM): 0.319
- relative viability ([3]; first compound 0.3162 µM): 0.526
- relative viability ([3]; first compound 1 µM): 0.715
- relative viability ([4]; first compound 0.01 µM): 0.713
- relative viability ([4]; first compound 0.03162 µM): 0.708
- relative viability ([4]; first compound 0.1 µM): 0.625
- relative viability ([4]; first compound 0.3162 µM): 0.745
- relative viability ([4]; first compound 1 µM): 0.734
- relative viability ([5]; first compound 0.01 µM): 0.379
- relative viability ([5]; first compound 0.03162 µM): 0.379
- relative viability ([5]; first compound 0.1 µM): 0.403
- relative viability ([5]; first compound 0.3162 µM): 0.388
- relative viability ([5]; first compound 1 µM): 0.352
- relative viability ([6]; first compound 0.01 µM): 0.423
- relative viability ([6]; first compound 0.03162 µM): 0.57
- relative viability ([6]; first compound 0.1 µM): 0.55
- relative viability ([6]; first compound 0.3162 µM): 0.556
- relative viability ([6]; first compound 1 µM): 0.564
- relative viability ([7]; first compound 0.01 µM): 0.292
- relative viability ([7]; first compound 0.03162 µM): 0.758
- relative viability ([7]; first compound 0.1 µM): 0.428
- relative viability ([7]; first compound 0.3162 µM): 0.902
- relative viability ([7]; first compound 1 µM): 0.361
- relative viability ([8]; first compound 0.01 µM): 0.424
- relative viability ([8]; first compound 0.03162 µM): 0.397
- relative viability ([8]; first compound 0.1 µM): 0.482
- relative viability ([8]; first compound 0.3162 µM): 0.425
- relative viability ([8]; first compound 1 µM): 0.385
- relative viability ([9]; first compound 0.01 µM): 0.523
- relative viability ([9]; first compound 0.03162 µM): 0.55
- relative viability ([9]; first compound 0.1 µM): 0.457
- relative viability ([9]; first compound 0.3162 µM): 0.498
- relative viability ([9]; first compound 1 µM): 0.529
- relative viability ([10]; first compound 0.01 µM): 0.381
- relative viability ([10]; first compound 0.03162 µM): 0.387
- relative viability ([10]; first compound 0.1 µM): 0.371
- relative viability ([10]; first compound 0.3162 µM): 0.386
- relative viability ([10]; first compound 1 µM): 0.369
- relative viability ([11]; first compound 0.01 µM): 0.644
- relative viability ([11]; first compound 0.03162 µM): 0.733
- relative viability ([11]; first compound 0.1 µM): 0.635
- relative viability ([11]; first compound 0.3162 µM): 0.671
- relative viability ([11]; first compound 1 µM): 0.612
- relative viability ([12]; first compound 0.01 µM): 0.573
- relative viability ([12]; first compound 0.03162 µM): 0.551
- relative viability ([12]; first compound 0.1 µM): 0.531
- relative viability ([12]; first compound 0.3162 µM): 0.509
- relative viability ([12]; first compound 1 µM): 0.45
- relative viability ([13]; first compound 0.01 µM): 0.291
- relative viability ([13]; first compound 0.03162 µM): 0.278
- relative viability ([13]; first compound 0.1 µM): 0.28
- relative viability ([13]; first compound 0.3162 µM): 0.269
- relative viability ([13]; first compound 1 µM): 0.285
- relative viability ([14]; first compound 0.01 µM): 0.388
- relative viability ([14]; first compound 0.03162 µM): 0.334
- relative viability ([14]; first compound 0.1 µM): 0.328
- relative viability ([14]; first compound 0.3162 µM): 0.368
- relative viability ([14]; first compound 1 µM): 0.35
- relative viability ([15]; first compound 0.01 µM): 0.61
- relative viability ([15]; first compound 0.03162 µM): 0.508
- relative viability ([15]; first compound 0.1 µM): 0.506
- relative viability ([15]; first compound 0.3162 µM): 0.483
- relative viability ([15]; first compound 1 µM): 0.556
- relative viability ([16]; first compound 0.01 µM): 0.394
- relative viability ([16]; first compound 0.03162 µM): 0.316
- relative viability ([16]; first compound 0.3162 µM): 0.286
- relative viability ([16]; first compound 1 µM): 0.298
- relative viability ([17]; first compound 0.01 µM): 0.545
- relative viability ([17]; first compound 0.03162 µM): 0.318
- relative viability ([17]; first compound 0.1 µM): 0.376
- relative viability ([17]; first compound 0.3162 µM): 0.419
- relative viability ([17]; first compound 1 µM): 0.317
- relative viability ([18]; first compound 0.01 µM): 0.555
- relative viability ([18]; first compound 0.03162 µM): 0.735
- relative viability ([18]; first compound 0.1 µM): 0.671
- relative viability ([18]; first compound 0.3162 µM): 0.575
- relative viability ([18]; first compound 1 µM): 0.704
- relative viability ([19]; first compound 0.01 µM): 0.645
- relative viability ([19]; first compound 0.03162 µM): 0.546
- relative viability ([19]; first compound 0.1 µM): 0.475
- relative viability ([19]; first compound 0.3162 µM): 0.641
- relative viability ([19]; first compound 1 µM): 0.581
- relative viability ([20]; first compound 0.01 µM): 0.75
- relative viability ([20]; first compound 0.03162 µM): 0.781
- relative viability ([20]; first compound 0.1 µM): 0.395
- relative viability ([20]; first compound 0.3162 µM): 0.814
- relative viability ([20]; first compound 1 µM): 0.668
- relative viability ([21]; first compound 0.01 µM): 0.43
- relative viability ([21]; first compound 0.03162 µM): 0.458
- relative viability ([21]; first compound 0.1 µM): 0.431
- relative viability ([21]; first compound 0.3162 µM): 0.378
- relative viability ([21]; first compound 1 µM): 0.449
- relative viability ([22]; first compound 0.01 µM): 0.471
- relative viability ([22]; first compound 0.03162 µM): 0.504
- relative viability ([22]; first compound 0.1 µM): 0.487
- relative viability ([22]; first compound 0.3162 µM): 0.492
- relative viability ([22]; first compound 1 µM): 0.464
